Reference: US4407798A, “Cephem compounds” (Fujisawa Pharmaceutical Co., Ltd., priority 1980, dated 1983)
In brackets after ≈: the same amount, converted by molar mass.

test system: Escherichia coli 31; assay: In vitro antimicrobial activity, two-fold agar-plate dilution method (MIC); format: cell-based; settings: HI-agar, 37° C., 20 hours
Procedure: Now in order to show the utility of the object compounds (I), the test data on the in vitro antimicrobial activity of some representative compounds (I) of this invention are shown in the following. Test: In vitro Antimicrobial Activity.
In vitro Antimicrobial activity was determined by the two-fold agar-plate dilution method as described below.
One loopful of an overnight culture of each test strain in Tripticase-soy broth (approximately 10^8 viable cells per ml) was streaked on heart infusion agar (HI-agar) containing graded concentrations of antimicrobial agents, and the minimal inhibitory concentration (MIC) was expressed in term of μg/ml after incubation at 37° C. for 20 hours.

MIC [µg/mL] | SMILES
0.05 (≈ 0.0955 µM) | Nc1ccnc(/C(=N/OC2CCCC2)C(=O)NC2C(=O)N3C(C(=O)[O-])=C(C[n+]4ccccc4)CSC23)n1 (stereo not drawn) [Compound A, 7-[2-Cyclopentyloxyimino-2-(4-aminopyrimidin-2-yl)acetamido]-3-(1-pyridiniomethyl)-3-cephem-4-carboxylate (syn isomer)]
0.05 (≈ 0.097 µM) | CSCO/N=C(\C(=O)NC1C(=O)N2C(C(=O)[O-])=C(C[n+]3ccccc3)CSC12)c1nccc(N)n1 (stereo not drawn) [Compound B, 7-[2-Methylthiomethoxyimino-2-(4-aminopyrimidin-2-yl)acetamido]-3-(1-pyridiniomethyl)-3-cephem-4-carboxylate (syn isomer)]
0.05 (≈ 0.103 µM) | CCO/N=C(\C(=O)NC1C(=O)N2C(C(=O)[O-])=C(C[n+]3ccccc3)CSC12)c1nccc(N)n1 (stereo not drawn) [Compound C, 7-[2-Ethoxyimino-2-(4-aminopyrimidin-2-yl)acetamido]-3-(1-pyridiniomethyl)-3-cephem-4-carboxylate (syn isomer)]
0.05 (≈ 0.101 µM) | C#CCO/N=C(\C(=O)NC1C(=O)N2C(C(=O)[O-])=C(C[n+]3ccccc3)CSC12)c1nccc(N)n1 (stereo not drawn) [Compound D, 7-[2-Propargyloxyimino-2-(4-aminopyrimidin-2-yl)acetamido]-3-(1-pyridiniomethyl)-3-cephem-4-carboxylate (syn isomer)]
